According to the supplement of paper PMC10307832:

How the values were obtained:
Assay in all cases: relative viability (nuclei count vs DMSO), 5 days (fraction); higher = more cells survive
Lapatinib + Vorinostat = compound: CS(=O)(=O)CCNCc1ccc(-c2ccc3ncnc(Nc4ccc(OCc5cccc(F)c5)c(Cl)c4)c3c2)o1 [Lapatinib] + O=C(CCCCCCC(=O)Nc1ccccc1)NO [Vorinostat] (partner 1 µM)
How it was run: (§1)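 One day after seeding in 1536-well plates, lung cancer cell lines were dosed by pin tool. Dosing was either single-drug or a fixed anchor-drug dose plus five library-drug doses (not always all listed) in √10 steps. After 5 days, nuclei were stained in one fix-and-stain step and counted on 4× images, and relative viability is the nuclei count of treated wells over that of vehicle wells, given as the median of duplicate plates.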

Wnt-C59 + Lapatinib = compound: CC1=NC=CC(=C1)C2=CC=C(C=C2)CC(=O)NC3=CC=C(C=C3)C4=CN=CC=C4 [Wnt-C59] + CS(=O)(=O)CCNCc1ccc(-c2ccc3ncnc(Nc4ccc(OCc5cccc(F)c5)c(Cl)c4)c3c2)o1 [Lapatinib] (partner 2 µM)
How it was run: as §1

Lapatinib = compound: CS(=O)(=O)CCNCc1ccc(-c2ccc3ncnc(Nc4ccc(OCc5cccc(F)c5)c(Cl)c4)c3c2)o1 [Lapatinib]
How it was run: (§2)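 Vehicle-anchored 1536-well plates of lung cancer cell lines, held overnight at 37 °C, were pinned with five library-drug doses (not always all listed) spaced by √10. No medium change followed over the next 5 days, after which the cells were fixed, permeabilised and Hoechst-stained together and imaged at 4×. Nuclei were counted with MetaXpress, and viability is treated-well nuclei over vehicle-well nuclei, taken as a median across plates. Plates passed with control CV below 25% and at least one doubling.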

Wnt-C59 = compound: CC1=NC=CC(=C1)C2=CC=C(C=C2)CC(=O)NC3=CC=C(C=C3)C4=CN=CC=C4 [Wnt-C59]
How it was run: as §2

Cell Line	relative viability (Lapatinib + Vorinostat; first compound 0.02 µM)	relative viability (Lapatinib + Vorinostat; first compound 0.06325 µM)	relative viability (Lapatinib + Vorinostat; first compound 0.2 µM)	relative viability (Lapatinib + Vorinostat; first compound 0.6325 µM)	relative viability (Lapatinib + Vorinostat; first compound 2 µM)	relative viability (Wnt-C59 + Lapatinib; first compound 0.001 µM)	relative viability (Wnt-C59 + Lapatinib; first compound 0.01 µM)	relative viability (Wnt-C59 + Lapatinib; first compound 0.03162 µM)	relative viability (Wnt-C59 + Lapatinib; first compound 0.1 µM)	relative viability (Lapatinib; 0.02 µM)	relative viability (Lapatinib; 0.06325 µM)	relative viability (Lapatinib; 0.2 µM)	relative viability (Lapatinib; 0.6325 µM)	relative viability (Lapatinib; 2 µM)	relative viability (Lapatinib; 2 µM, anchor plate)	relative viability (Wnt-C59; 0.001 µM)	relative viability (Wnt-C59; 0.01 µM)	relative viability (Wnt-C59; 0.03162 µM)	relative viability (Wnt-C59; 0.1 µM)
NCI-H661	0.758	0.783	0.79	0.736	0.605	0.418	0.613	0.558	0.577	0.987	0.919	0.957	0.822	0.705	0.52	0.961	1.01	1.08	0.99
HCC-15		0.779	0.813	0.858	0.693	0.859	0.91	0.774	0.823		0.847	1.06	1.01	0.919	0.836	1.05	1.01	1.07	0.981
NCI-H2405		0.833		0.997	0.91	1.02		0.968	0.95	0.674	0.83	0.971	1.01	0.905	1.04	1.01	0.932	0.945	0.977
NCI-H838	0.699	0.69	0.743	0.732	0.544	0.901	0.924	1.07	1.08	0.954	0.82	0.97	0.947	0.897	0.992	0.981	0.985	0.964	0.995
EPLC-272H	0.636	0.328	0.457	0.583	0.391	0.837	0.959	1.19	0.954		0.733	0.959	1	0.783	0.993	1.01	0.886	1.15	0.987
NCI-H1915		0.494	0.554	0.489	0.473	0.88	0.939	1.03	0.944		0.975	1	0.999	0.977	0.996	0.995	0.942	0.969	1
EMC-BAC-2		0.336		0.531	0.522	0.828	0.755	0.849	0.794		0.8	0.734	0.985	1.04	0.917	0.891	0.874	0.868	0.962
